Experimental data as given in PubChem BioAssay (NCI).
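At the GI50, growth is halved. TGI denotes the concentration required for complete inhibition of growth.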

Assays:
Experiment in all cases: NCI tumour cell line growth inhibition, 384-well format; in the data active means GI50 below about 0.43 µM; inactive means the rest
[1] = tested on: EKVX NSCLC
[2] = tested on: U251 glioblastoma
[3] = tested on: RPMI-8226 leukemia
[4] = tested on: OVCAR-4 ovarian
[5] = tested on: NCI-H522 lung
[6] = tested on: HL-60(TB) leukemia
[7] = tested on: SK-MEL-2 melanoma
[8] = tested on: RXF 393 renal
[9] = tested on: BT-549 breast
[10] = tested on: NCI-H226 lung
[11] = tested on: IGROV1 ovarian
[12] = tested on: HOP-92 NSCLC
[13] = tested on: A498 renal

CS(=O)(=O)c1ccc(-c2cnc(NCc3ccco3)n3cnnc23)cc1
> 100 µM: TGI [1] | TGI [2] | TGI [4] | TGI [5] | TGI [6] | TGI [7] | TGI [8] | TGI [9] | TGI [10] | TGI [11] | TGI [12] | TGI [13]
inactive: GI50 [1] > 100 µM | GI50 [2] > 100 µM | GI50 [3] 6.1 µM | GI50 [4] > 100 µM | GI50 [5] > 100 µM | GI50 [6] 72.2 µM | GI50 [7] > 100 µM | GI50 [8] > 76.7 µM | GI50 [9] > 100 µM | GI50 [10] > 100 µM | GI50 [11] > 100 µM | GI50 [12] > 55.1 µM | GI50 [13] > 100 µM
> 33.7 µM: TGI [3]
